Assay results from US20220402916A1, “SMALL MOLECULE INHIBITORS OF KRAS G12C MUTANT” (Merck Sharp & Dohme Corp., priority 2019, published 2022).

Each compound was assayed against T1, Biotinylated KRAS G12C protein (Homo sapiens, UniProt P01116, C118S/C51S/C80L/G12C) (assay: SOS-catalyzed nucleotide exchange assay). Settings: 10,000 nM; 60 minutes of preincubation prior to addition of SOS.
T1 construct: 183 amino acids; biotin on K10
Format: biochemical
Description: Compounds are added to this complex, and then after 60 minute incubation time the mixture is treated with recombinant SOS protein and unlabeled GTP. Small molecule inhibitors stabilize the Bodipy-GDP complex whereas the untreated protein rapidly exchanges Bodipy-GDP for unlabeled GTP resulting in reduced TR-FRET signal. […] This mixture is then further diluted to 90 nM in an assay buffer (20 mM HEPES, 150 mM sodium chloride, 10 mM magnesium chloride, and 0.005% Tween) containing 15 nM of Terbium-Streptavidin (Invitrogen, catalog #PV3577) and 900 nM of Bodipy-GDP and incubated at room temperature for six hours. […] Each test compound (10 mM stock in DMSO) is diluted in DMSO to make a 10-point, 3-fold dilution series in a 384-well low dead volume microplate (Labcyte, catalog #LP-0200). Once titrations are made, 10 nL of the diluted compounds is acoustically dispensed into a 384-well assay plate (Corning, catalog #3820) using an Echo 550 (Labcyte). […] Each well then receives 3 μL of 240 nM recombinant human SOS protein and 9 mM GTP (Sigma, G8877) in assay buffer and is incubated at room temperature for 60 minutes. The time-resolved fluorescence resonance energy transfer signal for the assay plate is measured on an Envision (PerkinElmer) plate reader: Excitation filter=340 nm; emission1=495 nm; emission2=520 nm; dichroic mirror=D400/D505; delay time=100 μs. The signal of each well is determined as the ratio of the emission at 520 nm to that at 495 nm. […] The apparent effect as a function of compound concentration is fit to a four parameter logistic equation.

T1 sequence (P01116 with tags, fused parts or gaps isoform P01116-2 G12C/C51S/C80L/C118S): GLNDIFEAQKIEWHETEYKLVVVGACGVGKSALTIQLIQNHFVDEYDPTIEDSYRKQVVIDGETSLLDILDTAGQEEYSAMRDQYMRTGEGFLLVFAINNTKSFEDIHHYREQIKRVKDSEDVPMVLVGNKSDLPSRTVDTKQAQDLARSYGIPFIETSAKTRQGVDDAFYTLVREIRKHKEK

SMILES	inhibition at 10 µM
C=CC(=O)N1CCN(c2cc(C(=O)NCC3CN(C)CCO3)nc3c2CCN(c2cccc4cccc(C)c24)C3)CC1 (racemic) [Compound 55, rac-4-(4-acryloylpiperazin-1-yl)-N-((4-methylmorpholin-2-yl)methyl)-7-(8-methylnaphthalen-1-yl)-5,6,7,8-tetrahydro-1,7-naphthyridine-2-carboxamide]	31%
C=CC(=O)N1CCN(c2cc(C(=O)NCCCN(C)C)nc3c2CCN(c2cccc4ccccc24)C3)CC1 [Compound 4, 4-(4-acryloylpiperazin-1-yl)-N-(3-(dimethylamino)propyl)-7-(naphthalen-1-yl)-5,6,7,8-tetrahydro-1,7-naphthyridine-2-carboxamide]	23%
C=CC(=O)N1CCN(c2cc(C(=O)NCCN3CCOCC3)nc3c2CCN(c2cccc4ccccc24)C3)CC1 [Compound 9, 4-(4-acryloylpiperazin-1-yl)-N-(2-morpholinoethyl)-7-(naphthalen-1-yl)-5,6,7,8-tetrahydro-1,7-naphthyridine-2-carboxamide]	33%
C=CC(=O)N1CCN(c2cc(C(=O)NC(C)(C)CN(C)C)nc3c2CCN(c2cccc4cccc(C)c24)C3)CC1 [Compound 17, 4-(4-acryloylpiperazin-1-yl)-N-(1-(dimethylamino)-2-methylpropan-2-yl)-7-(8-methylnaphthalen-1-yl)-5,6,7,8-tetrahydro-1,7-naphthyridine-2-carboxamide]	16%

Second part, the compound after the results:

inhibition at 10 µM	SMILES
36%	C=CC(=O)N1CCN(c2cc(C(=O)N(C)C3CCN(C)C3)nc3c2CCN(c2cccc4cccc(C)c24)C3)CC1 (racemic) [Compound 51, rac-4-(4-acryloylpiperazin-1-yl)-N-methyl-7-(8-methylnaphthalen-1-yl)-N-(1-methylpyrrolidin-3-yl)-5,6,7,8-tetrahydro-1,7-naphthyridine-2-carboxamide]
33%	C=CC(=O)N1CCN(c2cc(C(=O)N(C)CCN(C)C)nc3c2CCN(c2cccc4cccc(C)c24)C3)CC1 [Compound 15, 4-(4-acryloylpiperazin-1-yl)-N-(2-(dimethylamino)ethyl)-N-methyl-7-(8-methylnaphthalen-1-yl)-5,6,7,8-tetrahydro-1,7-naphthyridine-2-carboxamide]
37%	C=CC(=O)N1CCN(c2cc(C(=O)NCC(C)(C)CN(C)C)nc3c2CCN(c2cccc4cccc(C)c24)C3)CC1 [Compound 22, 4-(4-acryloylpiperazin-1-yl)-N-(3-(dimethylamino)-2,2-dimethylpropyl)-7-(8-methylnaphthalen-1-yl)-5,6,7,8-tetrahydro-1,7-naphthyridine-2-carboxamide]

Same assay, conditions: apparent potency; preincubation time of 60 minutes prior to addition of SOS

SMILES	IC50
C=CC(=O)N1CCN(c2cc(C(=O)N3CCCCC3CN(C)C)nc3c2CCN(c2cccc4cccc(C)c24)C3)CC1 (racemic) [Compound 47, rac-1-(4-(2-(2-((dimethylamino)methyl)piperidine-1-carbonyl)-7-(8-methylnaphthalen-1-yl)-5,6,7,8-tetrahydro-1,7-naphthyridin-4-yl)piperazin-1-yl)prop-2-en-1-one]	7750 nM
C=CC(=O)N1CCN(c2cc(C(=O)NC3CCCCN(C)C3)nc3c2CCN(c2cccc4cccc(C)c24)C3)CC1 (racemic) [Compound 53, rac-4-(4-acryloylpiperazin-1-yl)-N-(1-methylazepan-3-yl)-7-(8-methylnaphthalen-1-yl)-5,6,7,8-tetrahydro-1,7-naphthyridine-2-carboxamide]	5360 nM
C=CC(=O)N1CCN(c2cc(C(=O)NCC3CCCN(C)C3)nc3c2CCN(c2cccc4cccc(C)c24)C3)CC1 (racemic) [Compound 56, rac-4-(4-acryloylpiperazin-1-yl)-7-(8-methylnaphthalen-1-yl)-N-((1-methylpiperidin-3-yl)methyl)-5,6,7,8-tetrahydro-1,7-naphthyridine-2-carboxamide]	3650 nM
C=CC(=O)N1CCN(c2cc(C(=O)NCCN3CCCC3)nc3c2CCN(c2cccc4ccccc24)C3)CC1 [Compound 1, 4-(4-acryloylpiperazin-1-yl)-7-(naphthalen-1-yl)-N-(2-(pyrrolidin-1-yl)ethyl)-5,6,7,8-tetrahydro-1,7-naphthyridine-2-carboxamide]	3920 nM
C=CC(=O)N1CCN(c2cc(C(=O)NCCCN(C)C)nc3c2CCN(c2cccc4ccccc24)C3)CC1 [Compound 4, 4-(4-acryloylpiperazin-1-yl)-N-(3-(dimethylamino)propyl)-7-(naphthalen-1-yl)-5,6,7,8-tetrahydro-1,7-naphthyridine-2-carboxamide]	9400 nM
C=CC(=O)N1CCN(c2cc(C(=O)N[C@H](C)CN3CCOCC3)nc3c2CCN(c2cccc4cccc(C)c24)C3)CC1 [Compound 24, (R)-4-(4-acryloylpiperazin-1-yl)-7-(8-methylnaphthalen-1-yl)-N-(1-morpholinopropan-2-yl)-5,6,7,8-tetrahydro-1,7-naphthyridine-2-carboxamide]	1490 nM
C=CC(=O)N1CCN(c2cc(C(=O)NC3(CN(CC)CC)CC3)nc3c2CCN(c2cccc4cccc(C)c24)C3)CC1 [Compound 26, 4-(4-acryloylpiperazin-1-yl)-N-(1-((diethylamino)methyl)cyclopropyl)-7-(8-methylnaphthalen-1-yl)-5,6,7,8-tetrahydro-1,7-naphthyridine-2-carboxamide]	187 nM
C=CC(=O)N1CCN(c2cc(C(=O)N3CCC[C@@H]3CN3CCCC3)nc3c2CCN(c2cccc4cccc(C)c24)C3)CC1 [Compound 42, (R)-1-(4-(7-(8-methylnaphthalen-1-yl)-2-(2-(pyrrolidin-1-ylmethyl)pyrrolidine-1-carbonyl)-5,6,7,8-tetrahydro-1,7-naphthyridin-4-yl)piperazin-1-yl)prop-2-en-1-one]	3770 nM

More lines, now with the values ahead:

IC50	SMILES
5500 nM	C=CC(=O)N1CCN(c2cc(C(=O)NC3CCCN(C)C3)nc3c2CCN(c2cccc4cccc(C)c24)C3)CC1 (racemic) [Compound 52, rac-4-(4-acryloylpiperazin-1-yl)-7-(8-methylnaphthalen-1-yl)-N-(1-methylpiperidin-3-yl)-5,6,7,8-tetrahydro-1,7-naphthyridine-2-carboxamide]
3410 nM	C=CC(=O)N1CCN(c2cc(C(=O)NCCC3CCCN3C)nc3c2CCN(c2cccc4cccc(C)c24)C3)CC1 (racemic) [Compound 57, rac-4-(4-acryloylpiperazin-1-yl)-7-(8-methylnaphthalen-1-yl)-N-(2-(1-methylpyrrolidin-2-yl)ethyl)-5,6,7,8-tetrahydro-1,7-naphthyridine-2-carboxamide]
2480 nM	C=CC(=O)N1CCN(c2cc(C(=O)NCC3CCN(C)C3)nc3c2CCN(c2cccc4cccc(C)c24)C3)CC1 (racemic) [Compound 58, rac-4-(4-acryloylpiperazin-1-yl)-7-(8-methylnaphthalen-1-yl)-N-((1-methylpyrrolidin-3-yl)methyl)-5,6,7,8-tetrahydro-1,7-naphthyridine-2-carboxamide]
3150 nM	C=CC(=O)N1CCN(c2cc(C(=O)NCCN(C)C)nc3c2CCN(c2cccc4ccccc24)C3)CC1 [Compound 2, 4-(4-acryloylpiperazin-1-yl)-N-(2-(dimethylamino)ethyl)-7-(naphthalen-1-yl)-5,6,7,8-tetrahydro-1,7-naphthyridine-2-carboxamide]
826 nM	C=CC(=O)N1CCN(c2cc(C(=O)NCCN(C)C)nc3c2CCN(c2cccc4cccc(C)c24)C3)CC1 [Compound 13, 4-(4-acryloylpiperazin-1-yl)-N-(2-(dimethylamino)ethyl)-7-(8-methylnaphthalen-1-yl)-5,6,7,8-tetrahydro-1,7-naphthyridine-2-carboxamide]
614 nM	C=CC(=O)N1CCN(c2cc(C(=O)N[C@@H](C)CN(C)C)nc3c2CCN(c2cccc4cccc(C)c24)C3)CC1 [Compound 14, (S)-4-(4-acryloylpiperazin-1-yl)-N-(1-(dimethylamino)propan-2-yl)-7-(8-methylnaphthalen-1-yl)-5,6,7,8-tetrahydro-1,7-naphthyridine-2-carboxamide]
4900 nM	C=CC(=O)N1CCN(c2cc(C(=O)N[C@H]3CCCC[C@@H]3N)nc3c2CCN(c2cccc4cccc(C)c24)C3)CC1 [Compound 30, 4-(4-acryloylpiperazin-1-yl)-N-((1S,2S)-2-aminocyclohexyl)-7-(8-methylnaphthalen-1-yl)-5,6,7,8-tetrahydro-1,7-naphthyridine-2-carboxamide]
426 nM	C=CC(=O)N1CCN(c2cc(C(=O)N[C@@H]3CCCC[C@H]3N)nc3c2CCN(c2cccc4cccc(C)c24)C3)CC1 [Compound 31, 4-(4-acryloylpiperazin-1-yl)-N-((1R,2R)-2-aminocyclohexyl)-7-(8-methylnaphthalen-1-yl)-5,6,7,8-tetrahydro-1,7-naphthyridine-2-carboxamide]
9590 nM	C=CC(=O)N1CCN(c2cc(C(=O)N3CCC[C@H]3CN3CCCC3)nc3c2CCN(c2cccc4cccc(C)c24)C3)CC1 [Compound 41, (S)-1-(4-(7-(8-methylnaphthalen-1-yl)-2-(2-(pyrrolidin-1-ylmethyl)pyrrolidine-1-carbonyl)-5,6,7,8-tetrahydro-1,7-naphthyridin-4-yl)piperazin-1-yl)prop-2-en-1-one]
